{"source": "patent US8114885B2", "about": "“Chemical compounds” (GlaxoSmithKline LLC, priority 2000, dated 2012)", "note": "Structures can show the parent of a compound that is named as a salt.", "data": [{"system": "HUVEC", "experiment": "Human Umbilical Vein Endothelial Cell (HUVEC) proliferation assay (BrdU incorporation)", "type": "cell-based", "conditions": "VEGF-stimulated HUVEC, 72 hrs, read-out: Inhibition of HUVEC proliferation IC50", "experimental": "Human Umbilical Vein Endothelial Cell (HUVEC) Proliferation Assay (BrdU Incorporation) Materials\nHUVEC cells and EGM-MV (Endothelial cell growth medium—microvascular) were purchased from Clonetics (San Diego, Calif.). VEGF and bFGF were purchased from R&D Systems (Minneapolis, Minn.). Anti-BrdU antibody was obtained from Chemicon International (Temecula, Calif.).\nHUVECs were routinely maintained in EGM-MV medium and were used within passage 7. HUVECs were plated at a density of 2500 cells/well in M199 medium containing 5% FBS (Hyclone) in type I collagen coated plate (Becton Dickinson). The plate was incubated at 37° C. overnight. The medium was removed by aspiration, and test compounds were added to each well in a volume of 0.1 ml/well in serum-free M199 medium. Compound concentrations ranged from 1.5 nM to 30 micromolar. The plate was incubated for 30 min at 37° C. Another 0.1 ml of serum-free M199 medium containing BSA and VEGF (or bFGF) was added to give a final concentration of 0.1% BSA and 10 ng/ml VEGF (0.3 ng/ml bFGF). The plate was incubated at 37° C. for 72 hrs. BrdU was added to each well after the first 48 hrs to give a concentration of 10 micromolar. The calorimetric ELISA assay was performed according to manufacturer's (Roche Molecular Sciences) instructions, with detection by absorbance reading at 450 nm. Results were plotted as concentration of test compound vs. absorbance to give an IC50 value for inhibition of BrdU incorporation.", "units": {"IC50": "nM"}, "values": [{"smiles": "CC(=O)Nc1cccc(Nc2nccc(N(C)c3ccc4c(C)n[nH]c4c3)n2)c1", "note": "[Example 31, N-[3-({4-[methyl(3-methyl-1H-indazol-6-yl)amino]-2-pyrimidinyl}amino)phenyl]acetamide]", "IC50": "1 to 200"}, {"smiles": "Cc1n[nH]c2cc(N(C)c3ncnc(Nc4cccc(CS(C)(=O)=O)c4)n3)ccc12", "note": "[Example 16, N^2-methyl-N^2-(3-methyl-1H-indazol-6-yl)-N^4-{3-[(methylsulfonyl)methyl]phenyl}-1,3,5-triazine-2,4-diamine hydrochloride]", "IC50": "201 to 500"}, {"smiles": "Cc1ccc(Nc2ncnc(N(C)c3ccc4c(C)n[nH]c4c3)n2)cc1NS(C)(=O)=O", "note": "[Example 18, N-[2-methyl-5-({4-[methyl(3-methyl-1H-indazol-6-yl)amino]-1,3,5-triazin-2-yl}amino)phenyl]methanesulfonamide]", "IC50": "501 to 1000"}, {"smiles": "Cc1c2ccc(N(C)c3ccnc(Nc4cccc(CS(C)(=O)=O)c4)n3)cc2nn1C", "note": "[Example 39, N^4-(2,3-dimethyl-2H-indazol-6-yl)-N^4-methyl-N^2-{3-[(methylsulfonyl)methyl]phenyl}-2,4-pyrimidinediamine]", "IC50": "1 to 200"}, {"smiles": "Cc1n[nH]c2cc(N(C)c3ccnc(Nc4cccc(C(N)=O)c4)n3)ccc12", "note": "[Example 56, 3-({4-[methyl(3-methyl-1H-indazol-6-yl)amino]-2-pyrimidinyl}amino)benzamide]", "IC50": "1 to 200"}, {"smiles": "CC(=O)Nc1ccc(Nc2ncnc(N(C)c3ccc4c(C)n[nH]c4c3)n2)cc1", "note": "[Example 20, N-[4-({4-[methyl(3-methyl-1H-indazol-6-yl)amino]-1,3,5-triazin-2-yl}amino)phenyl]acetamide hydrochloride]", "IC50": "> 1000"}, {"smiles": "Cc1n[nH]c2cc(N(C)c3nc(Nc4cccc(CS(=O)(=O)C(C)C)c4)ncc3F)ccc12", "note": "[Example 12, 5-fluoro-N^2-{3-[(isopropylsulfonyl)methyl]phenyl}-N^4-methyl-N^4-(3-methyl-1H-indazol-6-yl)-2,4-pyrimidinediamine]", "IC50": "1 to 200"}, {"smiles": "Cc1n[nH]c2cc(N(C)c3ccnc(Nc4cccc(S(C)(=O)=O)c4)n3)ccc12", "note": "[Example 53, N^4-methyl-N^4-(3-methyl-1H-indazol-6-yl)-N^2-[3-(methylsulfonyl)phenyl]-2,4-pyrimidinediamine]", "IC50": "1 to 200"}, {"smiles": "Cc1n[nH]c2cc(N(CC#N)c3ccnc(Nc4cccc(CS(C)(=O)=O)c4)n3)ccc12", "note": "[Example 46, [(3-methyl-1H-indazol-6-yl)(2-{3-[(methylsulfonyl)methyl]anilino}-4-pyrimidinyl)amino]acetonitrile]", "IC50": "1 to 200"}, {"smiles": "COc1ccc(S(=O)(=O)CC(C)C)cc1Nc1nccc(Nc2ccc3c(C)n[nH]c3c2)n1", "note": "[Example 30, N^2-[5-(isobutylsulfonyl)-2-methoxyphenyl]-N^4-(3-methyl-1H-indazol-6-yl)-2,4-pyrimidinediamine]", "IC50": "501 to 1000"}, {"smiles": "Cc1nc2cc(N(C)c3ccnc(Nc4cccc(S(N)(=O)=O)c4)n3)ccc2n1C", "note": "[Example 74, 3-({4-[(1,2-dimethyl-1H-benzimidazol-5-yl)(methyl)amino]pyrimidin-2-yl}amino)benzenesulfonamide]", "IC50": "1 to 200"}, {"smiles": "Cc1n[nH]c2cc(N(C)c3ccnc(Nc4cccc(CNS(C)(=O)=O)c4)n3)ccc12", "note": "[Example 59, N-[3-({4-[methyl (3-methyl-1H-indazol-6-yl)amino]-2-pyrimidinyl}amino)benzyl]methanesulfonamide]", "IC50": "1 to 200"}, {"smiles": "CCC(=O)c1ccc(OC)c(Nc2nccc(Nc3ccc4c(C)n[nH]c4c3)n2)c1", "note": "[Example 41, 1-[4-methoxy-3-({4-[(3-methyl-1H-indazol-6-yl)amino]-2-pyrimidinyl}amino)phenyl]-1-propanone]", "IC50": "501 to 1000"}, {"smiles": "COc1ccc(S(=O)(=O)C(C)C)cc1Nc1ncc(F)c(N(C)c2ccc3c(C)n[nH]c3c2)n1", "note": "[Example 5, 5-fluoro-N^2-[5-(isopropylsulfonyl)-2-methoxyphenyl]-N^4-methyl-N^4-(3-methyl-1H-indazol-6-yl)-2,4-pyrimidinediamine]", "IC50": "201 to 500"}, {"smiles": "CNS(=O)(=O)c1ccc(OC)c(Nc2nccc(Nc3ccc4c(C)n[nH]c4c3)n2)c1", "note": "[Example 43, 4-methoxy-N-methyl-3-({4-[(3-methyl-1H-indazol-6-yl)amino]-2-pyrimidinyl}amino)benzenesulfonamide]", "IC50": "201 to 500"}, {"smiles": "Cc1n[nH]c2cc(N(C)c3ccnc(Nc4cccc(S(N)(=O)=O)c4)n3)ccc12", "note": "[Example 21, 3-({4-[methyl(3-methyl-1H-indazol-6-yl)amino]-2-pyrimidinyl}amino)benzenesulfonamide hydrochloride]", "IC50": "1 to 200"}, {"smiles": "COc1cc(S(N)(=O)=O)ccc1Nc1ncc(F)c(N(C)c2ccc3c(C)n[nH]c3c2)n1", "note": "[Example 14, 4-({5-fluoro-4-[methyl(3-methyl-1H-indazol-6-yl)amino]-2-pyrimidinyl}amino)-3-methoxybenzenesulfonamide]", "IC50": "1 to 200"}, {"smiles": "Cc1n[nH]c2cc(N(C)c3nc(Nc4cccc(CS(C)(=O)=O)c4)ncc3F)ccc12", "note": "[Example 3, 5-fluoro-N^4-methyl-N^4-(3-methyl-1H-indazol-6-yl)-N^2-{3-[(methylsulfonyl)methyl]phenyl}-2,4-pyrimidinediamine]", "IC50": "1 to 200"}, {"smiles": "CNS(=O)(=O)c1ccc(OC)c(Nc2ncc(F)c(N(C)c3ccc4c(C)n[nH]c4c3)n2)c1", "note": "[Example 2, 3-({5-fluoro-4-[methyl(3-methyl-1H-indazol-6-yl)amino]-2-pyrimidinyl}amino)-4-methoxy-N-methylbenzenesulfonamide]", "IC50": "1 to 200"}, {"smiles": "Cc1c2ccc(N(C)c3ccnc(Nc4cccc(S(N)(=O)=O)c4)n3)cc2nn1Cc1cccc(Cl)c1", "note": "[Example 77, 3-({4-[[2-(3-chlorobenzyl)-3-methyl-2H-indazol-6-yl](methyl)amino]pyrimidin-2-yl}amino)benzenesulfonamide]", "IC50": "1 to 200"}, {"smiles": "Cc1n[nH]c2cc(N(C)c3ccnc(Nc4cccc(CS(=O)(=O)C(C)C)c4)n3)ccc12", "note": "[Example 28, N^2-{3-[(isopropylsulfonyl)methyl]phenyl}-N^4-methyl-N^4-(3-methyl-1H-indazol-6-yl)-2,4-pyrimidinediamine]", "IC50": "1 to 200"}, {"smiles": "COc1ccc(S(=O)(=O)Cc2cc(C)on2)cc1Nc1nccc(Nc2ccc3c(C)n[nH]c3c2)n1", "note": "[Example 33, N^2-(2-methoxy-5-{[(5-methyl-3-isoxazolyl)methyl]sulfonyl}phenyl)-N^4-(3-methyl-1H-indazol-6-yl)-2,4-pyrimidinediamine]", "IC50": "> 1000"}, {"smiles": "Cc1n[nH]c2cc(N(C)c3nc(Nc4ccc(S(C)(=O)=O)cc4)ncc3F)ccc12", "note": "[Example 7, 5-fluoro-N^4-methyl-N^4-(3-methyl-1H-indazol-6-yl)-N^2-[4-(methylsulfonyl)phenyl]-2,4-pyrimidinediamine]", "IC50": "201 to 500"}, {"smiles": "Cc1n[nH]c2cc(N(C)c3ccnc(Nc4ccc(CS(=O)(=O)C(C)C)cc4)n3)ccc12", "note": "[Example 29, N^2-{4-[(isopropylsulfonyl)methyl]phenyl}-N^4-methyl-N^4-(3-methyl-1H-indazol-6-yl)-2,4-pyrimidinediamine]", "IC50": "1 to 200"}, {"smiles": "CCN(c1ccc2c(C)n[nH]c2c1)c1ccnc(Nc2cc(S(=O)(=O)CC)ccc2OC)n1", "note": "[Example 26, N^4-ethyl-N^2-[5-(ethylsulfonyl)-2-methoxyphenyl]-N^4-(3-methyl-1H-indazol-6-yl)-2,4-pyrimidinediamine]", "IC50": "201 to 500"}, {"smiles": "COc1ccc(C(N)=O)cc1Nc1ncc(F)c(N(C)c2ccc3c(C)n[nH]c3c2)n1", "note": "[Example 13, 3-({5-fluoro-4-[methyl(3-methyl-1H-indazol-6-yl)amino]-2-pyrimidinyl}amino)-4-methoxybenzamide]", "IC50": "201 to 500"}, {"smiles": "COc1ccc(S(=O)(=O)NC(C)C)cc1Nc1ncc(F)c(N(C)c2ccc3c(C)n[nH]c3c2)n1", "note": "[Example 4, 3-({5-fluoro-4-[methyl(3-methyl-1H-indazol-6-yl)amino]-2-pyrimidinyl}amino)-N-isopropyl-4-methoxybenzenesulfonamide]", "IC50": "201 to 500"}, {"smiles": "Cc1c2ccc(N(C)c3ccnc(Nc4ccc(CCS(N)(=O)=O)cc4)n3)cc2nn1C", "note": "[Example 71, 2-[4-({4-[(2,3-dimethyl-2H-indazol-6-yl)(methyl)amino]pyrimidin-2-yl}amino)phenyl]ethanesulfonamide]", "IC50": "1 to 200"}, {"smiles": "CCS(=O)(=O)NCc1ccc(Nc2nccc(N(C)c3ccc4c(C)n[nH]c4c3)n2)cc1", "note": "[Example 58, N-[4-({4-[methyl(3-methyl-1H-indazol-6-yl)amino]-2-pyrimidinyl}amino)benzyl]ethanesulfonamide]", "IC50": "1 to 200"}, {"smiles": "CCn1nc2cc(N(C)c3ccnc(Nc4cccc(S(N)(=O)=O)c4)n3)ccc2c1C", "note": "[Example 76, 3-({4-[(2-ethyl-3-methyl-2H-indazol-6-yl)(methyl)amino]pyrimidin-2-yl}amino)benzenesulfonamide]", "IC50": "1 to 200"}, {"smiles": "Cc1n[nH]c2cc(N(C)c3ccnc(Nc4cccc([S+](C)[O-])c4)n3)ccc12", "note": "(centres unmarked) [Example 66, N^4-methyl-N^4-(3-methyl-1H-indazol-6-yl)-N^2-[3-(methylsulfinyl)phenyl]-2,4-pyrimidinediamine]", "IC50": "1 to 200"}, {"smiles": "Cc1c2ccc(N(C)c3ccnc(Nc4ccc(CS(C)(=O)=O)cc4)n3)cc2nn1C", "note": "[Example 72, N^4-(2,3-dimethyl-2H-indazol-6-yl)-N^4-methyl-N^2-{4-[(methylsulfonyl)methyl]phenyl}pyrimidine-2,4-diamine]", "IC50": "1 to 200"}]}]}
